Calls of active or inactive are those of the source. The rule behind the calls is not given here.
Tests used:
[1] = test system: Bacillus subtilis; test: Antibacterial activity against Bacillus subtilis ATCC 6633 at 30 ug/ml after 24 hr by paper disk diffusion method; type: functional; details: ATCC 6633, 24 h, read-out: DIZ
[2] = test system: Escherichia coli; test: Antibacterial activity against Escherichia coli ATCC 8793 at 30 ug/ml after 24 hr by paper disk diffusion method; type: functional; details: ATCC 8793, 24 h, read-out: DIZ
[3] = test system: Aspergillus niger; test: Fungicidal activity against Aspergillus niger MTCC 3323; type: functional, organism-based
[4] = test system: Escherichia coli; test: Bactericidal activity against Escherichia coli ATCC 8793; type: functional, organism-based
[5] = test system: Candida albicans; test: Antifungal activity against Candida albicans MTCC 227 at 50 ug/ml by paper disk diffusion method; type: functional; details: read-out: DIZ
[6] = test system: Fusarium oxysporum; test: Antifungal activity against Fusarium oxysporum MTCC 2087 at 70 ug/ml by paper disk diffusion method; type: functional; details: read-out: DIZ
[7] = test system: Escherichia coli; test: Antibacterial activity against Escherichia coli ATCC 8793 at 50 ug/ml after 24 hr by paper disk diffusion method; type: functional; details: ATCC 8793, 24 h, read-out: DIZ
[8] = test system: Fusarium oxysporum; test: Antifungal activity against Fusarium oxysporum MTCC 2087 at 50 ug/ml by paper disk diffusion method; type: functional; details: read-out: DIZ
[9] = test system: Staphylococcus aureus; test: Bactericidal activity against Staphylococcus aureus ATCC 25923; type: functional, organism-based
[10] = test system: Aspergillus niger; test: Antifungal activity against Aspergillus niger MTCC 3323 at 70 ug/ml by paper disk diffusion method; type: functional; details: read-out: DIZ
[11] = test system: Candida albicans; test: Antifungal activity against Candida albicans MTCC 227 at 30 ug/ml by paper disk diffusion method; type: functional; details: read-out: DIZ
[12] = test system: Bacillus subtilis; test: Bactericidal against Bacillus subtilis ATCC 6633; type: functional, organism-based
[13] = test system: Escherichia coli; test: Antibacterial activity against Escherichia coli ATCC 8793 at 70 ug/ml after 24 hr by paper disk diffusion method; type: functional; details: ATCC 8793, 24 h, read-out: DIZ
[14] = test system: Candida albicans; test: Antifungal activity against Candida albicans MTCC 227 at 70 ug/ml by paper disk diffusion method; type: functional; details: read-out: DIZ
[15] = test system: Aspergillus niger; test: Antifungal activity against Aspergillus niger MTCC 3323 at 50 ug/ml by paper disk diffusion method; type: functional; details: read-out: DIZ
[16] = test system: Fusarium oxysporum; test: Fungicidal activity against Fusarium oxysporum MTCC 2087; type: functional, organism-based
[17] = test system: Pseudomonas aeruginosa; test: Antibacterial activity against Pseudomonas aeruginosa ATCC 27853 at 30 ug/ml after 24 hr by paper disk diffusion method; type: functional; details: ATCC 27853, 24 h, read-out: DIZ
[18] = test system: Pseudomonas aeruginosa; test: Bactericidal activity against Pseudomonas aeruginosa ATCC 27853; type: functional, organism-based
[19] = test system: Staphylococcus aureus; test: Antibacterial activity against Staphylococcus aureus ATCC 25923 at 30 ug/ml after 24 hr by paper disk diffusion method; type: functional; details: ATCC 25923, 24 h, read-out: DIZ
[20] = test system: Staphylococcus aureus; test: Antibacterial activity against Staphylococcus aureus ATCC 25923 at 70 ug/ml after 24 hr by paper disk diffusion method; type: functional; details: ATCC 25923, 24 h, read-out: DIZ
[21] = test system: Fusarium oxysporum; test: Antifungal activity against Fusarium oxysporum MTCC 2087 at 30 ug/ml by paper disk diffusion method; type: functional; details: read-out: DIZ
[22] = test system: Aspergillus niger; test: Antifungal activity against Aspergillus niger MTCC 3323 at 30 ug/ml by paper disk diffusion method; type: functional; details: read-out: DIZ
[23] = test system: Candida albicans; test: Fungicidal activity against Candida albicans MTCC 227; type: functional, organism-based
[24] = test system: Staphylococcus aureus; test: Antibacterial activity against Staphylococcus aureus ATCC 25923 at 50 ug/ml after 24 hr by paper disk diffusion method; type: functional; details: ATCC 25923, 24 h, read-out: DIZ
[25] = test system: Bacillus subtilis; test: Antibacterial activity against Bacillus subtilis ATCC 6633 at 70 ug/ml after 24 hr by paper disk diffusion method; type: functional; details: ATCC 6633, 24 h, read-out: DIZ
[26] = test system: Pseudomonas aeruginosa; test: Antibacterial activity against Pseudomonas aeruginosa ATCC 27853 at 70 ug/ml after 24 hr by paper disk diffusion method; type: functional; details: ATCC 27853, 24 h, read-out: DIZ
[27] = test system: Pseudomonas aeruginosa; test: Antibacterial activity against Pseudomonas aeruginosa ATCC 27853 at 50 ug/ml after 24 hr by paper disk diffusion method; type: functional; details: ATCC 27853, 24 h, read-out: DIZ
[28] = test system: Bacillus subtilis; test: Antibacterial activity against Bacillus subtilis ATCC 6633 at 50 ug/ml after 24 hr by paper disk diffusion method; type: functional; details: ATCC 6633, 24 h, read-out: DIZ

SMILES	zone of inhibition at 30 µg/mL [1]	zone of inhibition at 30 µg/mL [2]	Activity [3]	Activity [4]	zone of inhibition at 50 µg/mL [5]	zone of inhibition at 70 µg/mL [6]	zone of inhibition at 50 µg/mL [7]	zone of inhibition at 50 µg/mL [8]	Activity [9]	zone of inhibition at 70 µg/mL [10]	zone of inhibition at 30 µg/mL [11]	Activity [12]	zone of inhibition at 70 µg/mL [13]	zone of inhibition at 70 µg/mL [14]	zone of inhibition at 50 µg/mL [15]	Activity [16]	zone of inhibition at 30 µg/mL [17]	Activity [18]	zone of inhibition at 30 µg/mL [19]	zone of inhibition at 70 µg/mL [20]	also measured
CCCN(CCC)CC(=O)Nn1c(S)nnc1-c1ccc(C)cc1	8.93 mm	9.33 mm	Active	Active	10.5 mm	9.96 mm	10.3 mm	8.4 mm	Active	14.4 mm	9.13 mm	Active	11.1 mm	11.3 mm	12.3 mm	Active	9.56 mm	Active	8.2 mm	10 mm	zone of inhibition at 30 µg/mL [21]: 7.26 mm; zone of inhibition at 30 µg/mL [22]: 11.2 mm; Activity [23]: Active; zone of inhibition at 50 µg/mL [24]: 9.33 mm; zone of inhibition at 70 µg/mL [25]: 10.1 mm; zone of inhibition at 70 µg/mL [26]: 11.1 mm; zone of inhibition at 50 µg/mL [27]: 10.2 mm; zone of inhibition at 50 µg/mL [28]: 9.86 mm
CCN(CC)CC(=O)Nn1c(S)nnc1-c1ccc(OC)cc1	7.23 mm	9.2 mm	inactive	Active	9.13 mm	9.06 mm	10.1 mm	8.21 mm	Active	11.1 mm	8.1 mm	Active	11.2 mm	10.4 mm	10.2 mm	inactive	8.26 mm	Active	7.63 mm	9.36 mm	zone of inhibition at 30 µg/mL [21]: 7.26 mm; zone of inhibition at 30 µg/mL [22]: 9.13 mm; Activity [23]: inactive; zone of inhibition at 50 µg/mL [24]: 8.33 mm; zone of inhibition at 70 µg/mL [25]: 9.03 mm; zone of inhibition at 70 µg/mL [26]: 10.8 mm; zone of inhibition at 50 µg/mL [27]: 9.56 mm; zone of inhibition at 50 µg/mL [28]: 8.53 mm
CCCN(CCC)CC(=O)Nn1c(S)nnc1-c1ccc(OC)cc1	10.2 mm	11.1 mm	Active	Active	13.2 mm	12.2 mm	12.2 mm	11.1 mm	Active	17 mm	12.5 mm	Active	14.2 mm	15.1 mm	15.2 mm	Active	12.2 mm	Active	12.7 mm	14.8 mm	zone of inhibition at 30 µg/mL [21]: 10.2 mm; zone of inhibition at 30 µg/mL [22]: 14 mm; Activity [23]: Active; zone of inhibition at 50 µg/mL [24]: 13.2 mm; zone of inhibition at 70 µg/mL [25]: 12.8 mm; zone of inhibition at 70 µg/mL [26]: 14.1 mm; zone of inhibition at 50 µg/mL [27]: 13.2 mm; zone of inhibition at 50 µg/mL [28]: 11 mm
COc1ccc(-c2nnc(S)n2NC(=O)CN(C(C)C)C(C)C)cc1	8.5 mm	9.43 mm	inactive	Active	12.1 mm	9.06 mm	10.3 mm	8.13 mm	Active	13 mm	11.2 mm	Active	12.4 mm	13.8 mm	11.3 mm	inactive	11.1 mm	Active	8.2 mm	10.3 mm	zone of inhibition at 30 µg/mL [21]: 7.26 mm; zone of inhibition at 30 µg/mL [22]: 10.1 mm; Activity [23]: inactive; zone of inhibition at 50 µg/mL [24]: 9.26 mm; zone of inhibition at 70 µg/mL [25]: 10.5 mm; zone of inhibition at 70 µg/mL [26]: 13.3 mm; zone of inhibition at 50 µg/mL [27]: 12.3 mm; zone of inhibition at 50 µg/mL [28]: 9.3 mm
CCN(CC)CC(=O)Nn1c(S)nnc1-c1ccc(C)cc1	6.4 mm	7.3 mm	inactive	Active	8.7 mm	7.33 mm	8.4 mm	6.23 mm	Active	10.2 mm	7.13 mm	Active	9 mm	9.23 mm	9.23 mm	inactive	7.3 mm	Active	6.36 mm	8.2 mm	zone of inhibition at 30 µg/mL [21]: 6.03 mm; zone of inhibition at 30 µg/mL [22]: 8.2 mm; Activity [23]: inactive; zone of inhibition at 50 µg/mL [24]: 7.4 mm; zone of inhibition at 70 µg/mL [25]: 8.26 mm; zone of inhibition at 70 µg/mL [26]: 9 mm; zone of inhibition at 50 µg/mL [27]: 8.4 mm; zone of inhibition at 50 µg/mL [28]: 7.43 mm
CCCCN(C)CC(=O)Nn1c(S)nnc1-c1ccc(OC)cc1	9.27 mm	7.2 mm	Active	Active	12.2 mm	7.23 mm	8.63 mm	6.26 mm	Active	13.2 mm	11.1 mm	Active	9.6 mm	14.2 mm	11.1 mm	Active	9.2 mm	Active	10.2 mm	13.5 mm	zone of inhibition at 30 µg/mL [21]: 6.16 mm; zone of inhibition at 30 µg/mL [22]: 10.6 mm; Activity [23]: Active; zone of inhibition at 50 µg/mL [24]: 11 mm; zone of inhibition at 70 µg/mL [25]: 11.2 mm; zone of inhibition at 70 µg/mL [26]: 12.2 mm; zone of inhibition at 50 µg/mL [27]: 10.4 mm; zone of inhibition at 50 µg/mL [28]: 10.2 mm

Reference: ChEMBL document CHEMBL3045810, “Synthesis and evaluation of 4-(substituted)-acetylamino-3-mercapto-5-(4-substituted) phenyl-1,2,4-triazole derivatives as antimicrobial agents” (2012)
